Laboratory results taken from the supplement of paper PMC6045584.
± gives the standard deviation of the averaged measurements.

Key:
[1] = compound: CCCS(=O)(=O)Nc1ccc(F)c(C(=O)c2c[nH]c3ncc(Cl)cc23)c1F [PLX-4720]; test: area under dose-response curve of surviving fraction (unscaled, Aref=0) (surviving fraction x log10(nM)); higher = more resistant; conditions: exposure time: 5 days; dose range 0.5-1000 nM
Procedure, shortened: (§1)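 Inhibitor was applied to tumour cell lines at eight concentrations (0.5 to 1000 nM) for five days in 384-well plates. Luminescence from CellTiter-Glo, scaled to DMSO-only wells, gave surviving fractions in three screens per line, and these were fitted by 3-parameter logistic regression with the drc R package. The area under the curve is an unscaled activity area. Aref was 0, and dose was on a log10 scale.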

[2] = compound: Nc1ccn([C@@H]2O[C@H](CO)[C@@H](O)C2(F)F)c(=O)n1 [GEMCITABINE]; test: as above; conditions: exposure time: 5 days; dose range 0.5-1000 nM
Procedure, shortened: as §1

[3] = compound: CCC1=C[C@@H]2CN(C1)Cc1c([nH]c3ccccc13)[C@@](C(=O)OC)(c1cc3c(cc1OC)N(C)[C@H]1[C@@](O)(C(=O)OC)[C@H](OC(C)=O)[C@]4(CC)C=CCN5CC[C@]31[C@@H]54)C2 [VINORELBINE]; test: as above; conditions: exposure time: 5 days; dose range 0.5-1000 nM
Procedure, shortened: as §1

[4] = compound: O=C(O)CC[C@H]1CC[C@@](c2cc(F)ccc2F)(S(=O)(=O)c2ccc(Cl)cc2)CC1 [MK0752]; test: as above; conditions: exposure time: 5 days; dose range 0.5-1000 nM
Procedure, shortened: as §1

[5] = compound: O=C(NOCC1CC1)c1ccc(F)c(F)c1Nc1ccc(I)cc1Cl; test: surviving fraction relative to DMSO-only wells; higher = less growth inhibition; conditions: exposure time: 5 days
Procedure, shortened: (§2)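 Viability was determined by CellTiter-Glo luminescence, expressed as surviving fraction normalised to the median of DMSO-only wells. The cells were log-phase tumour cell lines seeded at 250–500 per well in 384-well plates and, after 24 hours, exposed continuously for five days to inhibitors at 0.5, 1, 5, 10, 50, 100, 500 and 1000 nM. Three screens per line were run, keeping only lines with replicate Pearson r >0.7 and median Z' >0.3.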

[6] = compound: C#Cc1cccc(Nc2ncnc3cc(OCCOC)c(OCCOC)cc23)c1 [ERLOTINIB]; test: as above; conditions: exposure time: 5 days
Procedure, shortened: as §2

| Test System | area under dose-response curve [1] | area under dose-response curve [2] | area under dose-response curve [3] | area under dose-response curve [4] | surviving fraction ([5]; 0.5 nM) | surviving fraction ([5]; 1 nM) | surviving fraction ([5]; 5 nM) | surviving fraction ([5]; 10 nM) | surviving fraction ([5]; 50 nM) | surviving fraction ([5]; 100 nM) | surviving fraction ([5]; 500 nM) | surviving fraction ([5]; 1000 nM) | surviving fraction ([6]; 1 nM) | surviving fraction ([6]; 5 nM) | surviving fraction ([6]; 10 nM) | surviving fraction ([6]; 50 nM) | surviving fraction ([6]; 100 nM) | surviving fraction ([6]; 500 nM) | surviving fraction ([6]; 1000 nM) | surviving fraction ([6]; 0.5 nM) |
| --- | --- | --- | --- | --- | --- | --- | --- | --- | --- | --- | --- | --- | --- | --- | --- | --- | --- | --- | --- | --- |
| H23 LUNG | 3.19 | 1.22 | 1.74 | 3.65 | 0.922 ± 0.025 | 0.931 ± 0.027 | 0.834 ± 0.0027 | 0.741 ± 0.062 | 0.484 ± 0.029 | 0.413 ± 0.01 | 0.341 ± 0.0071 | 0.342 ± 0.0067 | 1.04 ± 0.038 | 0.998 ± 0.065 | 0.992 ± 0.055 | 0.774 ± 0.051 | 0.488 ± 0.016 | 0.349 ± 0.015 | 0.336 ± 0.015 |  |
| SJSA1 BONE | 3.17 | 5.62 | 2.09 | 3.53 | 1.05 ± 0.036 | 1.06 ± 0.035 | 1.119 ± 0.0046 | 1.11 ± 0.013 | 0.968 ± 0.025 | 0.925 ± 0.027 | 0.742 ± 0.028 | 0.591 ± 0.046 | 0.267 ± 0.022 | 1.55 ± 0.035 | 0.189 ± 0.0056 | 1.02 ± 0.032 | 1.76 ± 0.13 | 1.75 ± 0.1 |  | 1.69 ± 0.11 |
| HS578T BREAST | 2.96 | 3.12 | 1.28 | 3.05 | 0.899 ± 0.029 | 0.913 ± 0.041 | 0.917 ± 0.076 | 1.09 ± 0.08 | 1.05 ± 0.08 | 0.892 ± 0.042 | 0.944 ± 0.041 | 0.936 ± 0.041 | 1.4 ± 0.32 | 1.21 ± 0.22 | 1.23 ± 0.063 | 1.33 ± 0.21 | 1.32 ± 0.16 | 1.28 ± 0.23 | 1.18 ± 0.12 | 1.18 ± 0.052 |
| SIHA CERVIX | 3.18 | 2.4 | 2.25 | 3.79 | 0.754 ± 0.016 | 0.8147 ± 0.0075 | 0.955 ± 0.058 | 0.923 ± 0.027 | 0.899 ± 0.018 | 0.873 ± 0.06 | 0.709 ± 0.042 | 0.765 ± 0.067 | 1.075 ± 0.0096 | 1.12 ± 0.074 |  | 1.1 ± 0.067 | 1.08 ± 0.099 |  | 1.06 ± 0.038 | 1.1 ± 0.05 |
| CASKI CERVIX | 3 | 1.01 | 1.27 | 3.28 | 0.931 ± 0.018 | 0.944 ± 0.038 | 0.95 ± 0.051 | 0.881 ± 0.032 | 0.766 ± 0.022 | 0.685 ± 0.045 | 0.474 ± 0.013 | 0.454 ± 0.02 | 0.856 ± 0.053 |  | 0.8153 ± 0.0021 | 0.717 ± 0.049 | 0.547 ± 0.031 | 0.336 ± 0.013 | 0.239 ± 0.018 | 0.908 ± 0.099 |
| DU4475 BREAST | 1.92 | 1.48 | 1.96 | 3.26 | 0.859 ± 0.24 | 0.791 ± 0.12 | 0.794 ± 0.29 | 0.674 ± 0.064 | 0.49 ± 0.15 | 0.199 ± 0.11 | 0.0277 ± 0.0074 | 0.0263 ± 0.0078 | 0.972 ± 0.086 |  |  |  | 1.17 ± 0.027 | 1.15 ± 0.14 | 1.02 ± 0.033 | 0.965 ± 0.051 |
| YAMATO SYNOVIAL | 2.65 | 1.25 | 2.04 | 4.77 | 0.319 ± 0.026 | 1.07 ± 0.11 | 0.9 ± 0.084 | 1.2 ± 0.044 | 0.483 ± 0.013 | 1.1 ± 0.14 | 0.789 ± 0.064 | 0.928 ± 0.049 | 1.29 ± 0.088 | 1.43 ± 0.079 | 1.26 ± 0.036 | 1.39 ± 0.071 | 1.35 ± 0.014 | 1.31 ± 0.074 | 1.2 ± 0.15 | 1.28 ± 0.12 |
| A549 LUNG | 3.13 | 1.76 | 2.2 | 3.48 | 0.931 ± 0.014 | 0.95667 ± 0.00058 | 0.947 ± 0.017 | 0.956 ± 0.019 | 0.964 ± 0.027 | 1.01 ± 0.02 | 0.93 ± 0.013 | 0.886 ± 0.015 | 1.06 ± 0.026 | 1.06 ± 0.027 | 1.056 ± 0.0021 | 1.05 ± 0.022 |  |  | 1.03 ± 0.029 |  |
| MCF7 BREAST | 2.81 | 1.94 | 2.07 | 3.07 | 0.843 ± 0.041 | 0.87 ± 0.035 | 0.848 ± 0.02 | 0.849 ± 0.028 | 0.874 ± 0.029 | 0.867 ± 0.045 | 0.849 ± 0.022 | 0.841 ± 0.06 | 0.9629 ± 0.007 | 0.993 ± 0.044 | 0.953 ± 0.053 | 1.084 ± 0.0061 | 1.03 ± 0.018 | 1.03 ± 0.042 |  | 0.942 ± 0.022 |
| MDAMB361 BREAST | 2.92 | 2.69 | 2.09 | 2.88 | 1.06 ± 0.12 | 0.887 ± 0.067 | 0.986 ± 0.076 | 0.973 ± 0.029 | 0.963 ± 0.083 | 1.03 ± 0.019 | 1.05 ± 0.072 | 0.972 ± 0.12 | 0.849 ± 0.05 | 0.83 ± 0.037 | 0.869 ± 0.011 |  |  | 0.913 ± 0.091 | 0.827 ± 0.033 | 0.873 ± 0.095 |
| MDAMB231 BREAST | 3.25 | 2.29 | 1.77 | 3.28 | 0.963 ± 0.011 | 0.994 ± 0.035 | 1 ± 0.024 | 1.02 ± 0.032 | 0.969 ± 0.024 | 0.912 ± 0.022 | 0.65 ± 0.039 | 0.52 ± 0.02 | 0.997 ± 0.013 | 1.02 ± 0.019 | 1.02 ± 0.011 | 1.04 ± 0.019 | 1.06 ± 0.027 | 1.06 ± 0.028 | 1.03 ± 0.029 | 1.01 ± 0.028 |
| CME SYNOVIAL | 3.17 | 1.25 | 2.33 | 4.45 | 0.301 ± 0.075 | 1.11 ± 0.064 | 1.04 ± 0.15 | 1.27 ± 0.12 | 0.584 ± 0.07 | 1.22 ± 0.17 | 0.993 ± 0.16 | 1.02 ± 0.27 | 1.29 ± 0.052 | 1.32 ± 0.091 | 1.33 ± 0.17 | 1.44 ± 0.17 | 1.36 ± 0.12 | 1.29 ± 0.17 | 1.16 ± 0.17 | 1.29 ± 0.069 |
| HCC1954 BREAST | 1.55 | 1.75 | 1.3 | 3.08 | 0.986 ± 0.081 | 1.13 ± 0.023 | 1.12 ± 0.027 | 1.05 ± 0.066 | 0.8718 ± 0.0032 | 0.805 ± 0.081 | 0.617 ± 0.041 | 0.566 ± 0.067 | 1.14 ± 0.082 | 1.35 ± 0.075 | 1.35 ± 0.23 | 0.782 ± 0.23 | 0.708 ± 0.23 | 0.527 ± 0.066 | 0.493 ± 0.092 | 1.05 ± 0.059 |
